Assay results from patent publication US8399462B2, “JNK modulators” (Roche Palo Alto LLC, priority 2006, dated 2013).

Key:
[1] = target: Human JNK1α1 (Homo sapiens, UniProt P45983); assay: JNK assay in vitro (phosphorylation of GST-ATF2 with [γ-33P]ATP), JNK1; type: biochemical
Description: (§1) JNK activity was measured by phosphorylation of GST-ATF2 (19-96) with [γ-^33P] ATP. […] Human JNK2α2 assay contains 1 nM enzyme, 1 μM ATF2, 8 μM ATP with 1 μCi [γ-^33P] ATP. Human JNK1α1 assay contains 2 nM enzyme, 1 μM ATF2, 6 μM ATP with 1 μCi [γ-^33P] ATP. Human JNK3 (Upstate Biotech #14-501M) assay contains 2 nM enzyme, 1 μM ATF2, 4 μM ATP with 1 μCi [γ-33P] ATP. The enzyme assay was carried out in the presence or absence of several compound concentrations. JNK and compound were pre-incubated for 10 min., followed by initiation of the enzymatic reaction by adding ATP and the substrate. The reaction mixture was incubated at 30° C. for 30 min. At the end of incubation, the reaction was terminated by transferring 25 μl of the reaction mixture to 150 μl of 10% glutathione Sepharose® slurry (Amersham # 27-4574-01) containing 135 mM EDTA. The reaction product was captured on the affinity resin, and washed on a filtration plate (Millipore, MABVNOB50) with phosphate buffered saline for six times to remove free radionucleotide. The incorporation of ^33P into ATF2 was quantified on a microplate scintillation counter (Packard Topcount). Compound inhibition potency on JNK was measured by IC50 value generated from ten concentration inhibition curves fitted into the 3-parameter model: % inhibition=Maximum/(I+(IC50/[Inhibitor])^slope). Data were analyzed on Microsoft Excel for parameter estimation.

[2] = target: Human JNK2α2 (Homo sapiens, UniProt P45984); assay: JNK assay in vitro (phosphorylation of GST-ATF2 with [γ-33P]ATP), JNK2; type: biochemical
Description: as §1

[3] = system: c-jun; assay: c-jun of Table 2 (method not described); type: cell-based
[4] = system: TNFα-induced IL-6 production; assay: Rat in vivo TNFα-induced IL-6 production assay; conditions: 1.5 h, oral gavage, 30 min before TNF-α i.p., blood 90 min after challenge
Description: Female Wistar-Han rats procured from Charles River Laboratories were allowed to acclimate for one week prior to use and achieve an approximate body weight of 95-130 g. Rats were administered test compound via oral gavage 30 min prior to an intraperitoneal challenge of 0.5 μg recombinant rat TNF-α (Biosource). Blood was collected via cardiocentesis 90 min after TNF-α challenge. Plasma was prepared using lithium heparin separation tubes (BD microtainer) and frozen at −80° C. until analyzed. IL-6 levels were determined using a rat specific IL-6 ELISA kit (Biosource).

[5] = system: inflammatory cell infiltration into BAL; assay: Ovalbumin-sensitized asthma model (inflammatory cell infiltration into BAL); type: in vivo, rat
Description: (A) Male Brown-Norway rats are sensitized i.p. with 100 μg of OA (ovalbumin) in 0.2 ml alum once every week for three weeks (day 0, 7, and 14). The week following the last sensitization, the rats are ready for testing. One to 2 days prior to challenge, animals are weighed. On day 21, the rats are dosed q.d. with either vehicle or compound formulation subcutaneously 30 minutes before OA aerosol challenge (1% OA for 45 minutes) and terminated 4 or 24 hours after challenge. At time of sacrifice, rats are anesthetized (urethane, approx. 2 g/kg, i.p.). Plasma is collected from rats for PK at termination. Blood is drawn from the abdominal aorta at termination. A tracheal cannula is inserted and the lungs are lavaged with 3×3 ml PBS. The BAL fluid is analyzed for total leukocyte number and differential leukocyte counts. Total leukocyte number in an aliquot of the cells (20-100 μl) is determined using a Coulter Counter. For differential leukocyte counts, 50-200 μl of the sample is centrifuged in a Cytospin and the slide stained with Diff-Quik. The proportions of monocytes, eosinophils, neutrophils and lymphocytes are counted under light microscopy using standard morphological criteria and expressed as a percentage. The remaining BAL fluid is centrifuged (1500 rpm, 10 min) and the supernatant is stored at −80° C. Lungs are also harvested for protein and/or RNA analyses.

[6] = system: inflammatory cell infiltration into BAL; assay: as above; type: in vivo, rat; conditions: 30 mg/kg

Sequence of Human JNK1α1 (P45983 1-384 isoform P45983-2): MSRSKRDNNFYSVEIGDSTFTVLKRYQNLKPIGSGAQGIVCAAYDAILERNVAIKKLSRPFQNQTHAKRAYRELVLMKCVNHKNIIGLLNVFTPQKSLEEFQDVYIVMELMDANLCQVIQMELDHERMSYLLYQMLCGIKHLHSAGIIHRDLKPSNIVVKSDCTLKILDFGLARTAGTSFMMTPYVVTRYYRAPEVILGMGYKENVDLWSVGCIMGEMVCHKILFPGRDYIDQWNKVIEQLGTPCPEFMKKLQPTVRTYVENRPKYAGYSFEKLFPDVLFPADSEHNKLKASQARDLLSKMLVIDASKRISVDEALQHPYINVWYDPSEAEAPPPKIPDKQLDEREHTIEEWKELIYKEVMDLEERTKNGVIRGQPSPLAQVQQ
Sequence of Human JNK2α2 (P45984 whole entry): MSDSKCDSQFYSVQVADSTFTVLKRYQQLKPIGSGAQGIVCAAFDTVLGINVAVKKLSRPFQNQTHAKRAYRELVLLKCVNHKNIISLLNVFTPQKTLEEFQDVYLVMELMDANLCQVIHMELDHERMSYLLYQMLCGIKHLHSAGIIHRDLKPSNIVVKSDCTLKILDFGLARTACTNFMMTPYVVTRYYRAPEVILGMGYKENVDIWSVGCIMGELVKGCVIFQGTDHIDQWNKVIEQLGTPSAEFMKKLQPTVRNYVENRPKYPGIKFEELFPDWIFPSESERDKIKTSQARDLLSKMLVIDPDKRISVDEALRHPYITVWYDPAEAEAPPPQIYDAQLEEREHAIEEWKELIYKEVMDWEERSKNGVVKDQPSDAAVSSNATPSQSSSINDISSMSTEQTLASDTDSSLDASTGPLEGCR

Structure (SMILES)	IC50 [1] [nM]	IC50 [2] [nM]	IC50 [3] [nM]	inhibition in vivo at 30 mg/kg [4] [%]	inhibition in vivo at 10 mg/kg [4] [%]	other results
O=C(NCC(O)CO)[C@H]1CC[C@H](Nc2nccc(-n3ncc4ccccc43)n2)CC1 (stereo partly shown) [Compound 16]	70.8	592	4130	47.4	–	–
CC(C)(O)c1cccc2c1ccn2-c1ccnc(N[C@H]2CC[C@H](O)CC2)n1 [Compound 18, 4-[4-(4-(2-hydroxyprop-2-yl)-indol-1-yl)-pyrimidin-2-ylamino]-cyclohexanol]	73.5	337	1950	–	–	–
O=C(NC(CO)CO)[C@H]1CC[C@H](Nc2nccc(-n3ncc4ccccc43)n2)CC1 [Compound 26, 4-(4-indazol-1-yl-pyrimidin-2-ylamino)-cyclohexane carboxylic acid 1,3-dihydroxyprop-2-ylamide]	85	695	1890	59.6	–	–
N#CCOc1cccc2c1cnn2-c1ccnc(N[C@H]2CC[C@H](O)CC2)n1 [Compound 87, (1-[2-(4-hydroxycyclo-hexylamino)-pyrimidin-4-yl]-1H-indazol-4-yl-oxy)acetonitrile]	29.7	191	1710	–	64	–
CC(C)(O)[C@H]1CC[C@H](Nc2nccc(-n3ncc4c(OCCCS(C)(=O)=O)cccc43)n2)CC1 [Compound 157, 2-(4-{4-[4-(3-methane-sulfonyl-propoxy)-indazol-1-yl]-pyrimidin-2-ylamino}-cyclohexyl)-propan-2-ol]	–	–	–	–	52.5	Eosinophils % inhibition ([5]; 10 mg/kg): 6.5%; Eosinophils count in BAL ([5]; 10 mg/kg): 0.29 ± 0.09 × 10^5 per mL; Neutrophils % inhibition ([5]; 10 mg/kg): 41.3%; Neutrophils count in BAL ([5]; 10 mg/kg): 0.94 ± 0.10 × 10^5 per mL; Total cells % inhibition ([5]; 10 mg/kg): 3.3%; Total cells count in BAL ([5]; 10 mg/kg): 2.67 ± 0.13 × 10^5 per mL; Total cells % inhibition ([5]; 30 mg/kg): 10.9%; Eosinophils % inhibition [6]: 22.6%; Eosinophils count in BAL [6]: 0.24 ± 0.05 × 10^5 per mL; Neutrophils % inhibition [6]: 70.6%; Neutrophils count in BAL [6]: 0.47 ± 0.12 × 10^5 per mL; Total cells count in BAL [6]: 2.46 ± 0.18 × 10^5 per mL
